In US12642780B2, “Methods and compositions to treat and prevent viral infections and acute respiratory distress syndrome” (priority 2020, dated 2026):

Experiments:
[1] = test system: NLRP3 inflammasome; experiment: NLRP3 inflammasome activation in LPS-primed mouse microglia; format: cell-based; conditions: different NLRP3 activators, metformin 0.5 mM 16 hrs
[2] = test system: BMDM; experiment: Q-PCR quantitation of cytokine mRNAs in LPS-stimulated BMDM; format: cell-based, mouse
Protocol: RNA was extracted using AllPrep DNA/RNA Mini kit, and cDNA was synthesized using SuperScript™ VILO™ cDNA Synthesis Kit. mRNA expression was determined by QPCR in a CFX96 thermal cycler (Biorad) as described (Zhong et al., 2016). Data are presented in arbitrary units and calculated by the 2^(−ΔΔCT) method. Primer sequences were obtained from the NIH qPrimerDepot (http://mouseprimerdepot.nci.nih.gov) and provided by Integrated DNA technologies.

[3] = test system: POLγ; experiment: POLγ activity assay in lysates of treated macrophages; format: cell-based, mouse
[4] = test system: NLRP3 inflammasome; experiment: NLRP3 inflammasome activation in human macrophages; format: cell-based; conditions: LPS 20 ng/ml 3 hrs, ATP 2 mM 30 min, metformin 0.5 mM 16 hrs
[5] = LC-MS/MS metformin concentration in plasma; conditions: 24 hrs after LPS challenge, oral and i.p.
Protocol: Pooled mice plasma (CD-1 (ICR) MSE00PLK2, BioIVT) was selected as blank matrix for standards and quality control samples. Sample preparation procedure was adopted from literatures with minor modifications. […] The samples mix were vortexed for 2 minutes then sonicated for 1 min and centrifuged at 6100 g for 10 min. Supernatants were transferred into a new set 96-well plate, and 10 μL were injected for LC-MS/MS analysis. […] The solution was then serially diluted with 50% methanol-water to obtain standard working solutions over a concentration range of 10-2000 ng/ml. The quality control (QC) samples were prepared in three concentrations: 10, 100, and 500 ng/ml.
LC-MS/MS system was performed using an Agilent 1290 Infinity HPLC and HiP ALS (Autosampler) coupled with AB Sciex 6500 Q-Trap mass spectrometer. All data were acquired using Analyst (AB SCIEX v1.7.1). […] The mobile phase A was 20 mM ammonium acetate buffer in water and 100% acetonitrile as mobile phase B. A total 7 min gradient run with a flow rate of 0.8 ml/min was implemented. […] The mass spectrometer was operated in a positive mode using scheduled multiple reaction morning (sMRM).

[6] = BMDM, metformin 0.5 mM 16 h, LPS

## CN(C)C(=N)NC(=N)N [metformin, N,N-dimethylbiguanide]
[1]
  Casp1 p20 and IL-1β secretion: abrogated
[2]; AMPKα1 silenced (shPrkaa1) LPS-treated macrophages
  Il1b and Il6 mRNA after metformin treatment: still declined
[2]; BMDM, metformin 0.5 mM 16 h
  decline in Il1b and Il6 mRNA induction by LPS: 30-50%
[2]; [6]
  induction of Ifnb and Ifng mRNAs: did not inhibit induction
  induction of Il10 mRNA: potentiated induction
[2]; BMDM, metformin 0.5 mM 16 h, LPS 100 ng/ml 4 hrs
  other cytokine and chemokine mRNAs (Tnf, Il12, Il23, Ccl2, Ccl3, Ccl4, Ccl5): little effect
[2]; LPS-stimulated Il10−/− BMDM
  Il1b and Il6 mRNA expression: still inhibited
[3]; lysates of LPS-stimulated macrophages, assay mix lacking exogenous ATP
  POLγ activity: decreased
[3]; lysates of metformin treated LPS stimulated BMDM
  effect of AMPKα1 deficiency on POLγ expression or activity: no effect
[3]; lysates of metformin treated LPS-stimulated macrophages, addition of ATP at 10 mM
  POLγ activity: fully restored
[4]
  Casp1 p20 and IL-1β secretion: abrogated
[5]
  circulating concentrations: equally low
